Assay results reported in patent US20220152203A1, “BROAD-BASED THERAPEUTIC FOR INACTIVATING COVID-19 AND OTHER VIRAL PATHOGENS USING CHEMILUMINESCENCE-ACTIVATED COMPOUNDS ENCAPSULATED IN NANOPARTICLES” (priority 2020, published 2022).
In brackets after ≈: the same amount, converted by molar mass. Several values for one entry are separate records, joined by “and”; a condition that tells them apart may be missing. Equal entries are not always repeated. Where two headings read alike, the source gives them in different places.

Columns and labels:
[1] = test system: HIV-1ΔtatΔrev; type: cell-based
[2] = test system: HIV; conditions: hypericin with “molecular flashlight”, cell culture in vitro; cited from earlier work
[3] = −20° C. in the absence of light and oxygen; cited from earlier work
[4] = cited from earlier work

Cc1cc(O)c2c(=O)c3c(O)cc(O)c4c5c(O)cc(O)c6c(=O)c7c(O)cc(C)c8c1c2c(c34)c(c78)c65 [hypericin, Hypericin]
HIV p24 concentration as a function of time after infection ([1]; day 0 (inoculum), hypericin exposed to the light (positive control)): 1 ng/mL
HIV p24 concentration as a function of time after infection ([1]; day 0 (inoculum), not exposed to light, hypericin 5 μmol, 2 h 37° C., replicates 1-3): 1 ng/mL
HIV p24 concentration as a function of time after infection ([1]; day 3, hypericin exposed to the light (positive control)): 0.05 ng/mL
HIV p24 concentration as a function of time after infection ([1]; day 3, not exposed to light, hypericin 5 μmol, 2 h 37° C., replicates 1-3): 0.05 ng/mL
HIV p24 concentration as a function of time after infection ([1]; day 6, hypericin exposed to the light (positive control)): 0.05 ng/mL
HIV p24 concentration as a function of time after infection ([1]; day 6, not exposed to light, hypericin 5 μmol, 2 h 37° C., replicates 1-3, listed as Hyp only): 19.34 ng/mL and 12.13 ng/mL and 11 ng/mL
HIV p24 concentration as a function of time after infection ([1]; day 9, hypericin exposed to the light (positive control)): 3 ng/mL
HIV p24 concentration as a function of time after infection ([1]; day 9, not exposed to light, hypericin 5 μmol, 2 h 37° C., replicates 1-3, listed as Hyp only): 1,055 ng/ml and 831 ng/ml and 1,120 ng/ml
HIV p24 concentration as a function of time after infection ([1]; day 13, hypericin exposed to the light (positive control)): 2.9 ng/mL
HIV p24 concentration as a function of time after infection ([1]; day 13, not exposed to light, hypericin 5 μmol, 2 h 37° C., replicates 1-3, listed as Hyp only): 1,985 ng/ml and 3,501 ng/ml and 3,270 ng/ml
HIV p24 concentration as a function of time after infection ([1]; day 16, hypericin exposed to the light (positive control)): 0.05 ng/mL
HIV p24 concentration as a function of time after infection ([1]; day 16, not exposed to light, hypericin 5 μmol, 2 h 37° C., replicates 1-3, listed as Hyp only): 1,870 ng/ml and 1543 ng/ml and 923 ng/ml
HIV p24 concentration as a function of time after infection ([1]; day 20, hypericin exposed to the light (positive control)): 6.6 ng/mL
HIV p24 concentration as a function of time after infection ([1]; day 20, not exposed to light, hypericin 5 μmol, 2 h 37° C., replicates 1-3, listed as Hyp only): 1,763 ng/ml and 2,789 ng/ml and 2,775 ng/ml
effect on host cells [2]: without harming these cells
storage stability [3]: stable
solubility ([4]; DMSO): soluble in DMSO

O=C(O)C1CSC(c2nc3ccc(O)cc3s2)=N1 [D-luciferin, 4,5-Dihydro-2-(6-hydroxy-2-benzothiazolyl)-4-thiazolecarboxylic acid]
solubility in DMSO ([4]; DMSO): 50 mg/mL (≈ 178 mM)
solubility in methanol ([4]; methanol): 10 mg/mL (≈ 35.7 mM)
